# Results published in US20250092065A1, “2-(INDAZOL-5-YL)-6-(PIPERIDIN-4-YL)-1,7-NAPHTHYRIDINE DERIVATIVES AND RELATED COMPOUNDS AS MODULATORS FOR SPLICING NUCLEIC ACIDS AND FOR THE TREATMENT OF PROLIFERATIVE DISEASES” (REMIX THERAPEUTICS INC., priority 2022, published 2025).
# pIC50: −log10 of the molar value. Read-outs that look alike come from different tables or passages of the source.
# How the values were obtained:
# MYB mRNA = experiment: RT-qPCR splicing assay, MYB mRNA canonical (CJ) and alternative (AJ) junction; type: cell-based, human; conditions: Homo sapiens; for AC50: MYB alternative junction mRNA, read-out: MYB AJ (increase in AJ mRNA, AC50)
# Experimental: (§1) Compounds described herein were used to modulate RNA transcript abundance in cells. The expression of a target mRNA was measured by detecting the formation of an exon-exon junction in the canonical transcript (CJ). A compound mediated exon-inclusion event was detected by observing an increase in formation of a new junction with an alternative exon (AJ). Real-time qPCR assays were used to detect these splicing switches and interrogate the potency of various compounds towards different target genes. A high-throughput real time quantitative PCR (RT-qPCR) assay was developed to measure these two isoforms of the mRNA (CJ and AJ) for exemplary genes, such as HTT, SMN2, and MYB, together with a control housekeeping gene, GAPDH or GUSB or PPIA, used for normalization. Briefly, the A673 or K562 cell line was treated with various compounds described herein (e.g., compounds of Formula (I)). After treatment, the levels of the HTT, MYB, or SMN2 mRNA targets were determined from each sample of cell lysate by cDNA synthesis followed by qPCR.
# (§2) The A673 cell line was cultured in DMEM with 10% FBS. Cells were diluted with full growth media and plated in a 96-well plate (15,000 cells in 100 ul media per well). The plate was incubated at 37° C. with 5% CO2 for 24 hours to allow cells to adhere. An 11-point 3-fold serial dilution of the compounds was made in DMSO then diluted in media in an intermediate plate. Compounds were transferred from the intermediate plate to the cell plate with the top dose at a final concentration of 10 uM in the well. Final DMSO concentration was kept at or below 0.25%. The cell plate was returned to the incubator at 37° C. with 5% CO2 for an additional 24 hours.
# (§3) The K562 cell line was cultured in IMDM with 10% FBS. For K562, cells were diluted with full growth media and plated in either a 96-well plate (50,000 cells in 50 uL media per well) or a 384-well plate (8,000-40,000 cells in 45 uL media per well). An 11-point 3-fold serial dilution of the compounds were made in DMSO then diluted in media in an intermediate plate. Compound was transferred from the intermediate plate to the cell plate with the top dose at a final concentration of 10 uM in the well. Final DMSO concentration was kept at or below 0.25%. Final volume was 100 uL for 96-well plate and 50 uL for 384-well plate. The cell plate was then placed in an incubator at 37° C. with 5% CO2 for 24 hours.
# (§4) The cells were then gently washed with 50 uL-100 uL cold PBS before proceeding to addition of lysis buffer. 30 uL-50 μL of room temperature lysis buffer with DNAse I (and optionally RNAsin) was added to each well. Cells were shaken/mixed thoroughly at room temperature for 5-10 minutes for lysis to take place and then 3 uL-5 μL of room temperature stop solution was added and wells were shaken/mixed again. After 2-5 minutes, the cell lysate plate was transferred to ice for RT-qPCR reaction setup. The lysates could also be frozen at −80° C. for later use.
# (§5) In some cases, a direct lysis buffer was used. An appropriate volume of 3× lysis buffer (10 mM Tris, 150 mM NaCl, 1.5%-2.5% Igepal and 0.1-1 U/uL RNAsin, pH 7.4) was directly added to either K562 or A673 cells in media and mixed by pipetting 3 times. The plates were then incubated at room temperature with shaking/rocking for 20-50 minutes to allow for lysis to take place. After this time, the cell lysate plate was transferred to ice to set up for the RT-qPCR reactions. The lysates could also be frozen at −80° C. for later use.
# (§6) To set up 10 uL RT-qPCR reactions, cell lysates were transferred to 384-well qPCR plates containing the master mix according to the table below. The plates were sealed, gently vortexed, and spun down before the run. The volumes were adjusted accordingly in some instances where the reaction was carried in 20 μL. The table below summarizes the components of the RT-qPCR reactions:
# (§7) The RT-qPCR reaction was performed using a QuantStudio (ThermoFisher) under the following fast cycling conditions. […]
# K562 cells = experiment: Cell Titer Glo 2.0 cell viability (toxicity) assay, K562; conditions: 500 cells/well, 72 hours
# HTT = experiment: HiBiT protein abundance assay, HTT (K562 HiBiT knock-in); type: cell-based, human; conditions: HiBiT knock-in K562 cells, 24 hours, top dose 10 μM
# Experimental: (§8) Compounds described herein were used to screen for effects on quantitative protein abundance using a HiBit assay system (Promega). Quantitative protein abundance was determined by measuring the protein levels of HiBit-tagged protein targets expressed in cell culture via luminescence using the Nano-Glo HiBiT Lytic Detection System, which uses a split complementation assay format to reconstitute NanoBiT enzyme to generate a luminescent signal. A protein abundance assay was developed such that endogenous protein targets could be modified with the HiBiT peptide tag and their abundance could be assessed after compound treatment. Briefly, K562 cell lines containing a HiBiT-modification were treated with various compounds described herein (e.g., compounds of Formulas (I), or (II)). After treatment for 24 hours, the protein abundance of a specific target was determined by measuring luminescence.
# (§9) Cells were maintained in IMIDM with 10% FBS. Before the assay, cells were diluted with […] growth media (IMIDM+[…] media) and were seeded in a 384-well plate at a density of 10000 cells/well (for each cell line listed in Table 6). Each compound was prepared as a 10-point 3-fold serial dilution in DMSO with the top dose at a final concentration of 10 μM in the well. Unmodified K562 cells were added at the previously specified density with DMSO to serve as an assay baseline and positive control (PC) and DMSO only with the respective modified cell lines was added to the negative control (NC) columns. Final DMSO concentration was kept at or below 0.25%. Treated cell plates were placed in an incubator at 37° C. with […] for 24 hours. After 24 hours, 25 μL of Complete HiBit Lytic reagent was added to each well at room temperature (e.g. one plate requiring 10 mL Lytic Buffer, 100 μL LgBiT Protein, 200 μL Lytic Substrate), shaken for 5 minutes at 600 RPM, then left to sit for 10 minutes for signal to stabilize before reading on a Spark Cyto plate reader (Tecan) with a 500 ms measurement time.
# (§10) To determine compound effects on protein abundance of each target in Table 6, the percent response for each respective cell line was calculated at each compound concentration as follows:
# (§11) % response=100*(S−PC)(NC−PC)
# (§12) For the normalized response at each concentration, a four-parameter logistical regression was fit to the data and the response was interpolated at the […] to determine a concentration for protein abundance at 50% (IC50) the untreated control.
# Target C = experiment: HiBiT protein abundance assay, Target C (K562 HiBiT knock-in); type: cell-based, human; conditions: HiBiT knock-in K562 cells, 24 hours, top dose 10 μM
# Experimental: as §9, §10, §11, §12
# HTT mRNA = experiment: RT-qPCR splicing assay, HTT mRNA canonical (CJ) and alternative (AJ) junction; type: cell-based, human; conditions: Homo sapiens; for AC50: HTT alternative junction mRNA, read-out: HTT AJ (increase in AJ mRNA, AC50)
# Experimental: as §1, §2, §3, §4, §5, §6, §7
# SMN2 mRNA = experiment: RT-qPCR splicing assay, SMN2 mRNA; type: cell-based, human; conditions: Homo sapiens, canonical junction qPCR panel, Table 4; read-out: SMN2 IC50 (decrease in CJ mRNA levels)
# Experimental: as §1, §2, §3, §4, §5, §6, §7
# MYB = experiment: HiBiT protein abundance assay, MYB (K562 HiBiT knock-in); type: cell-based, human; conditions: HiBiT knock-in K562 cells, 24 hours, top dose 10 μM
# Experimental: as §8, §9, §10, §11, §12
# [1] = MYB canonical junction mRNA, RT-qPCR, read-out: MYB CJ (decrease in CJ mRNA levels, IC50)
# [2] = canonical junction qPCR panel, Table 4, read-out: MYB IC50 (decrease in CJ mRNA levels)
# [3] = HTT canonical junction mRNA, RT-qPCR, read-out: HTT CJ (decrease in CJ mRNA levels, IC50)
# [4] = canonical junction qPCR panel, Table 4, read-out: HTT IC50 (decrease in CJ mRNA levels)
SMILES,AC50 (MYB mRNA; RT-qPCR) [µM],pIC50 (MYB mRNA; [1]),pIC50 (MYB mRNA; [2]),"Effect of Exemplary Compounds on Cell Viability, K562 (K562 cells)",pIC50 (HTT),pIC50 (Target C),AC50 (HTT mRNA; RT-qPCR) [µM],pIC50 (HTT mRNA; [3]),pIC50 (HTT mRNA; [4]),pIC50 (SMN2 mRNA),pIC50 (MYB)
Cn1cc2cc(-c3ccc4nc(C5CCNCC5)ccc4n3)c(O)cc2n1 [Compound 100],1 to 10,> 7.00,> 7.00,B (B represents 100-1000 nM),> 7.00,> 7.00,0.1 to 1,> 7.00,> 7.00,> 7.00,> 7.00
Cc1c(O)c(-c2ccc3nc(C4CCNCC4)ccc3n2)cc2cn(C)nc12 [Compound 101],< 0.1,> 7.00,> 7.00,A (A represents <100 nM),> 7.00,> 7.00,< 0.1,> 7.00,> 7.00,> 7.00,> 7.00
Cn1cc2cc(-c3ccc4nc(C5CCNCC5)ccc4n3)c(O)c(F)c2n1 [Compound 102],< 0.1,> 7.00,> 7.00,A (A represents <100 nM),> 7.00,> 7.00,< 0.1,> 7.00,> 7.00,> 7.00,> 7.00
Cn1cc2c(O)c(-c3cc4ccc(C5CCNCC5)nc4cn3)ccc2n1 [Compound 106],0.1 to 1,5.00 to 6.00,5.00 to 6.00,B (B represents 100-1000 nM),5.00 to 6.00,5.00 to 6.00,1 to 10,5.00 to 6.00,5.00 to 6.00,6.00 to 7.00,5.00 to 6.00
Cn1cc2cc(-c3ncc4nc(C5CCNCC5)ccc4n3)c(O)cc2n1 [Compound 107],0.1 to 1,6.00 to 7.00,6.00 to 7.00,B (B represents 100-1000 nM),6.00 to 7.00,6.00 to 7.00,0.1 to 1,6.00 to 7.00,6.00 to 7.00,> 7.00,6.00 to 7.00
Cn1cc2c(O)c(-c3ncc4nc(C5CCNCC5)ccc4n3)ccc2n1 [Compound 108],1 to 10,5.00 to 6.00,5.00 to 6.00,B (B represents 100-1000 nM),6.00 to 7.00,6.00 to 7.00,1 to 10,5.00 to 6.00,5.00 to 6.00,> 7.00,6.00 to 7.00
Cn1cc2cc(-c3ccc4cc(C5CCNCC5)ccc4n3)c(O)cc2n1 [Compound 109],0.1 to 1,> 7.00,> 7.00,B (B represents 100-1000 nM),> 7.00,> 7.00,0.1 to 1,> 7.00,> 7.00,> 7.00,> 7.00
Cn1cc2cc(-c3ccc4c(F)c(C5CCNCC5)ccc4n3)c(O)cc2n1 [Compound 115],0.1 to 1,6.00 to 7.00,6.00 to 7.00,B (B represents 100-1000 nM),6.00 to 7.00,6.00 to 7.00,1 to 10,5.00 to 6.00,5.00 to 6.00,> 7.00,> 7.00
CN1CCN(c2ccc3nc(-c4cc5cn(C)nc5cc4O)ccc3n2)CC1 [Compound 116],1 to 10,6.00 to 7.00,6.00 to 7.00,C (C represents 1000-9999 nM),5.00 to 6.00,5.00 to 6.00,1 to 10,5.00 to 6.00,5.00 to 6.00,> 7.00,5.00 to 6.00
CC1CN(c2ccc3nc(-c4cc5cn(C)nc5cc4O)ccc3n2)CCN1 (stereo not drawn) [Compound 117],0.1 to 1,6.00 to 7.00,6.00 to 7.00,B (B represents 100-1000 nM),6.00 to 7.00,5.00 to 6.00,1 to 10,5.00 to 6.00,5.00 to 6.00,> 7.00,6.00 to 7.00
CC1CN(c2ccc3nc(-c4cc5cn(C)nc5cc4O)ccc3n2)CCN1C (stereo not drawn) [Compound 118],1 to 10,6.00 to 7.00,6.00 to 7.00,C (C represents 1000-9999 nM),5.00 to 6.00,< 5.00,1 to 10,5.00 to 6.00,5.00 to 6.00,> 7.00,6.00 to 7.00
CCC1CN(c2ccc3nc(-c4cc5cn(C)nc5cc4O)ccc3n2)CCN1 (stereo not drawn) [Compound 119],0.1 to 1,6.00 to 7.00,6.00 to 7.00,B (B represents 100-1000 nM),6.00 to 7.00,6.00 to 7.00,1 to 10,6.00 to 7.00,6.00 to 7.00,> 7.00,6.00 to 7.00
